Patent US20150105252A1, “SUBSTITUTED PYRAZOLES AS HERBICIDES” (E I DU PONT DE NEMOURS AND COMPANY, priority 2013, published 2015)

Experiments:
Assay in all cases: Test F preemergence
corn = format: in vivo, Zea mays
From the text: (§1) Seeds of plant species selected from corn (Zea mays), soybean (Glycine max), velvetleaf (Abutilon theophrasti), lambsquarters (Chenopodium album), wild poinsettia (Euphorbia heterophylla), pigweed, palmer (palmer pigweed, Amaranthus palmeri), common waterhemp (Amaranthus rudis), surinam grass (Brachiaria decumbens), large crabgrass (Digitaria sanguinalis), crabgrass, Brazil (Brazilian crabgrass, Digitaria horizontalis), fall panicum (Panicum dichotomiflorum), giant foxtail (Setaria faberii), green foxtail (Setaria viridis), goosegrass (Eleusine indica), johnsongrass (Sorghum halepense), common ragweed (Ambrosia elation), barnyardgrass (Echinochloa crus-galli), southern sandbur (Cenchrus echinatus), arrowleaf sida (Sida rhombifolia), Italian ryegrass (Lolium multiflorum), dayflower, VA (Virginia (VA) dayflower, Commelina virginica), field bindweed (Convolvulus arvensis), cocklebur (common cocklebur, Xanthium strumarium), morningglory (Ipomoea coccinea), nightshade (eastern black nightshade, Solanum ptycanthum), kochia (Kochia scoparia), yellow nutsedge (Cyperus esculentus), and hairy beggarticks (Bidens pilosa), were planted into a silt loam soil and treated preemergence with test chemicals formulated in a non-phytotoxic solvent mixture which included a surfactant.
(§2) At the same time, plants from these crop and weed species and also horseweed (Canada horseweed, Conyza canadensis), smartweed (ladysthumb smartweed, Polygonum persicaria), waterhemp_RES1, (ALS & Triazine resistant common waterhemp, Amaranthus rudis), and waterhemp_RES2, (ALS & HPPD resistant common waterhemp, Amaranthus rudis) were treated with postemergence applications of test chemicals formulated in the same manner. Plants ranged in height from 2 to 18 cm for postemergence treatments (1- to 4-leaf stage). Treated plants and controls were maintained in a greenhouse for 14 to 21 days, after which time all species were compared to controls and visually evaluated. Plant response ratings, summarized in Table F, are based on a scale of 0 to 100 where 0 is no effect and 100 is complete control. A dash (-) response means no test result.

Surinam grass = format: in vivo, Brachiaria decumbens
From the text: as §1, §2

crabgrass, Brazil = format: in vivo, Digitaria horizontalis
From the text: as §1, §2

common ragweed = format: in vivo, Ambrosia elation
From the text: as §1, §2

barnyardgrass = format: in vivo, Echinochloa crus-galli
From the text: as §1, §2

southern sandbur = format: in vivo, Cenchrus echinatus
From the text: as §1, §2

[1] = Preemergence, 250 g ai/ha, scale 0 to 100
[2] = Preemergence, 62 g ai/ha, scale 0 to 100
[3] = Preemergence, 125 g ai/ha, scale 0 to 100
[4] = preemergence, 16 g ai/ha, scale 0 to 100, 100 is complete control
[5] = Preemergence, 16 g ai/ha, scale 0 to 100
[6] = Preemergence, 31 g ai/ha, scale 0 to 100
[7] = preemergence, 8 g ai/ha, scale 0 to 100, 100 is complete control

Compound | Plant response rating, Corn (corn; [2]) | Plant response rating, Corn (corn; [3]) | Plant response rating, Corn (corn; [4]) | Plant response rating, Surinam Grass (Surinam grass; [2]) | Plant response rating, Surinam Grass (Surinam grass; [3]) | Plant response rating, Surinam Grass (Surinam grass; [4]) | Plant response rating, Crabgrass, Brazil (crabgrass, Brazil; [2]) | Plant response rating, Crabgrass, Brazil (crabgrass, Brazil; [3]) | Plant response rating, Crabgrass, Brazil (crabgrass, Brazil; [4]) | Plant response rating, Common Ragweed (common ragweed; [2]) | Plant response rating, Common Ragweed (common ragweed; [3]) | Plant response rating, Common Ragweed (common ragweed; [4]) | Plant response rating, Barnyardgrass (barnyardgrass; [2]) | Plant response rating, Barnyardgrass (barnyardgrass; [3]) | Plant response rating, Barnyardgrass (barnyardgrass; [4]) | Plant response rating, Southern Sandbur (southern sandbur; [2]) | Plant response rating, Southern Sandbur (southern sandbur; [3]) | Plant response rating, Southern Sandbur (southern sandbur; [4]) | Plant response rating, Corn (corn; [7]) | Plant response rating, Surinam Grass (Surinam grass; [7]) | further results
CCc1cc(C(=O)NC2CC2)nn1Cc1ccnc(OCC(F)(F)F)c1 [Compound 200] | 0 | 0 | 0 | 5 | 65 | 0 | 95 | 100 | 0 | 0 | 5 | 0 | 25 | 20 | 0 | 0 | 15 | 0 | – | – | Plant response rating, Corn (corn; [1]): 35; Plant response rating, Surinam Grass (Surinam grass; [1]): 95; Plant response rating, Crabgrass, Brazil (crabgrass, Brazil; [1]): 100; Plant response rating, Crabgrass, Brazil (crabgrass, Brazil; [5]): 35; Plant response rating, Common Ragweed (common ragweed; [1]): 30; Plant response rating, Common Ragweed (common ragweed; [5]): 0; Plant response rating, Barnyardgrass (barnyardgrass; [1]): 50; Plant response rating, Barnyardgrass (barnyardgrass; [5]): 15; Plant response rating, Southern Sandbur (southern sandbur; [1]): 60
CCNC(=O)c1cc(CCCl)n(Cc2ccnc(C(F)(F)F)c2)n1 [Compound 179] | 30 | 30 | – | 20 | 60 | – | 100 | 100 | – | 65 | 80 | – | 20 | 50 | – | 0 | 35 | – | 0 | 0 | Plant response rating, Corn (corn; [6]): 20; Plant response rating, Surinam Grass (Surinam grass; [6]): 20; Plant response rating, Crabgrass, Brazil (crabgrass, Brazil; [6]): 75; Plant response rating, Crabgrass, Brazil (crabgrass, Brazil; [7]): 0; Plant response rating, Common Ragweed (common ragweed; [6]): 40; Plant response rating, Common Ragweed (common ragweed; [7]): 0; Plant response rating, Barnyardgrass (barnyardgrass; [6]): 15; Plant response rating, Barnyardgrass (barnyardgrass; [7]): 0; Plant response rating, Southern Sandbur (southern sandbur; [6]): 0; Plant response rating, Southern Sandbur (southern sandbur; [7]): 0
Cc1cc(C(=O)NC(C)C)nn1Cc1ccnc(C(F)(F)F)c1 [Compound 197] | 0 | 20 | 0 | 20 | 20 | 0 | 100 | 100 | 75 | 40 | 80 | 0 | 0 | 0 | 0 | 0 | 15 | 0 | 0 | 0 | Plant response rating, Crabgrass, Brazil (crabgrass, Brazil; [5]): 85; Plant response rating, Crabgrass, Brazil (crabgrass, Brazil; [7]): 0; Plant response rating, Common Ragweed (common ragweed; [5]): 35; Plant response rating, Common Ragweed (common ragweed; [7]): 0; Plant response rating, Barnyardgrass (barnyardgrass; [5]): 0; Plant response rating, Barnyardgrass (barnyardgrass; [7]): 0; Plant response rating, Southern Sandbur (southern sandbur; [7]): 0
CCNC(=O)c1cc(CC)n(Cc2ccnc(C(F)(F)F)c2)n1 [Compound 196] | 0 | 25 | 0 | 25 | 70 | 0 | 100 | 100 | 75 | 70 | 90 | 30 | 10 | 65 | 0 | 10 | 40 | 0 | 0 | 0 | Plant response rating, Crabgrass, Brazil (crabgrass, Brazil; [5]): 100; Plant response rating, Crabgrass, Brazil (crabgrass, Brazil; [7]): 30; Plant response rating, Common Ragweed (common ragweed; [5]): 65; Plant response rating, Common Ragweed (common ragweed; [7]): 0; Plant response rating, Barnyardgrass (barnyardgrass; [5]): 0; Plant response rating, Barnyardgrass (barnyardgrass; [7]): 0; Plant response rating, Southern Sandbur (southern sandbur; [7]): 0
CCOc1cc(C(=O)NCC(F)(F)F)nn1Cc1ccnc(C(F)(F)F)c1 [Compound 104] | 50 | 60 | 0 | 75 | 80 | 10 | 100 | 100 | 10 | 100 | 100 | 0 | 100 | 100 | 20 | 80 | 90 | 0 | 0 | 0 | Plant response rating, Corn (corn; [6]): 30; Plant response rating, Surinam Grass (Surinam grass; [6]): 35; Plant response rating, Crabgrass, Brazil (crabgrass, Brazil; [6]): 95; Plant response rating, Crabgrass, Brazil (crabgrass, Brazil; [7]): 5; Plant response rating, Common Ragweed (common ragweed; [6]): 95; Plant response rating, Common Ragweed (common ragweed; [7]): 0; Plant response rating, Barnyardgrass (barnyardgrass; [6]): 50; Plant response rating, Barnyardgrass (barnyardgrass; [7]): 10; Plant response rating, Southern Sandbur (southern sandbur; [6]): 20; Plant response rating, Southern Sandbur (southern sandbur; [7]): 0
